We go through 64 compounds from patent US10111875B2, “Pyrrolopyrimidine compounds and uses thereof” (HUTCHISON MEDIPHARMA LIMITED, priority 2010, dated 2018).

For orientation: inhibition means the drop in the measured response relative to a control, in per cent.

In this assay the target is Recombinant human JAK1 catalytic domain (Homo sapiens (Human), UniProt P23458). The assay is described as follows: JAK1 kinase assay (Z'-LYTE Tyr 6 Peptide). The settings on record: read-out: inhibition percentage (IR %). In kind it is biochemical. The method, then:
JAK1/2/3 kinase assay are performed in vitro using Kit-Tyr 6 Peptide (Invitrogen, Cat. No. PV4122). TYK2 kinase assay are performed in vitro using Z′-LYTE™ Kinase Assay Kit-Tyr 3 Peptide (Invitrogen, Cat. No. PV3192). […] All compounds are initially tested at 8 different concentrations (1 μM down to 0.0003 μM) using a 1:3 serial dilution scheme.

Where [1] appears, read: JAK1 kinase assay, 0.3 uM concentration.

Like-named read-outs stand apart in the source and are kept apart here.

Recombinant human JAK1 catalytic domain, sequence (P23458 875-1153): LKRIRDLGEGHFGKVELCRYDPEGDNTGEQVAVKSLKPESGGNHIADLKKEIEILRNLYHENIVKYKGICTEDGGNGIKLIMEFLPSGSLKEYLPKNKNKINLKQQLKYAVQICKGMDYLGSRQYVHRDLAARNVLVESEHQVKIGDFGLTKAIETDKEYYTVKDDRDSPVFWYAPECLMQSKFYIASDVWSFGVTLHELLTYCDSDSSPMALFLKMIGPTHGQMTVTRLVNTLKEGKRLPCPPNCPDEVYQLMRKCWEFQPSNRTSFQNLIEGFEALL

In the case of `CN(c1ccn2nccc2n1)[C@@H]1CCN(c2ncnc3[nH]ccc23)C1` [Compound 88], the inhibition at 0.3 µM under setting [1] is 20 to 50%.

For the compound `CN(c1ccccn1)[C@@H]1CCN(c2ncnc3[nH]ccc23)C1` [Compound 156], the inhibition at 0.3 µM under setting [1] was 50 to 100%. Still for that read-out and setting: as for `CN(c1ccc(C(F)(F)F)cn1)[C@@H]1CCN(c2ncnc3[nH]ccc23)C1` [Compound 123], the figure is 50 to 100%; as for `CN(c1ccc(S(=O)(=O)NC2CC2)cn1)[C@@H]1CCN(c2ncnc3[nH]ccc23)C1` [Compound 236], 50 to 100%; as for `COc1ccc(S(=O)(=O)N(C)[C@@H]2CCN(c3ncnc4[nH]ccc34)C2)cc1` [Compound 13], 20 to 50%. As for `CN(c1ccc(C(=O)N[C@@H]2c3ccccc3C[C@@H]2O)cc1F)[C@@H]1CCN(c2ncnc3[nH]ccc23)C1` [Compound 203], under setting [1], the inhibition at 0.3 µM fell in the range of 20 to 50%. The same measure, in the same setting: to `CN(c1ccc(S(=O)(=O)N2CCNCC2)cn1)[C@@H]1CCN(c2ncnc3[nH]ccc23)C1` [Compound 251] belongs 50 to 100%; to `CN(c1ccncn1)[C@@H]1CCN(c2ncnc3[nH]ccc23)C1` [Compound 154, (R)—N-(1-(7H-pyrrolo[2,3-d]pyrimidin-4-yl)pyrrolidin-3-yl)-N-methylpyrimidin-4-amine], 50 to 100%. On the same count and under the same terms, as for `CN(c1ccc(C#N)nn1)[C@@H]1CCN(c2ncnc3[nH]ccc23)C1` [Compound 60], the figure is 50 to 100%; as for `CN(c1c(F)cc(C(=O)N[C@@H](CO)c2ccccc2)cc1F)[C@@H]1CCN(c2ncnc3[nH]ccc23)C1` [Compound 208], 50 to 100%. Same read-out and setting: to `Cc1cc(Cl)nc(N(C)[C@@H]2CCN(c3ncnc4[nH]ccc34)C2)c1C#N` [Compound 73] belongs 50 to 100%; to `N#Cc1ccc(N(C2CC2)[C@@H]2CCN(c3ncnc4[nH]ccc34)C2)nc1` [Compound 41], 50 to 100%; to `CN(C(=O)N1CCCC1C(F)(F)F)[C@@H]1CCN(c2ncnc3[nH]ccc23)C1` (stereo partly shown) [Compound 59], 50 to 100%. Turning to `CN(c1ccc(S(=O)(=O)NC2COC2)cn1)[C@@H]1CCN(c2ncnc3[nH]ccc23)C1` [Compound 242], under setting [1], the inhibition at 0.3 µM lay within 50 to 100%. Still for that read-out and setting: to `CNC(=O)c1ccc(N(C)[C@@H]2CCN(c3ncnc4[nH]ccc34)C2)nc1` [Compound 175] belongs 20 to 50%; to `COCC1CCCN1S(=O)(=O)c1ccc(N(C)[C@@H]2CCN(c3ncnc4[nH]ccc34)C2)nc1` (stereo partly shown) [Compound 249], 50 to 100%.

For the compound `CN(c1ncc(Br)cc1C#N)[C@@H]1CCN(c2ncnc3[nH]ccc23)C1` [Compound 89], the inhibition at 0.3 µM under setting [1] was 50 to 100%. On the same count and under the same terms, to `CN(C(=O)N1CCC[C@@H]1C#N)[C@@H]1CCN(c2ncnc3[nH]ccc23)C1` [Compound 38] belongs 50 to 100%. In the case of `COc1cccc(NC(=O)c2ccc(N(C)[C@@H]3CCN(c4ncnc5[nH]ccc45)C3)nc2)c1` [Compound 196], under setting [1], the inhibition at 0.3 µM lay within 20 to 50%.

As to `CN([C@@H]1CCN(c2ncnc3[nH]ccc23)C1)S(=O)(=O)N1CCCC1` [Compound 15], under setting [1], the inhibition at 0.3 µM was 50 to 100%.

Consider `C#CCN(c1cnc(C#N)cn1)[C@@H]1CCN(c2ncnc3[nH]ccc23)C1` [Compound 127], for which the inhibition at 0.3 µM under setting [1] lay in the range of 50 to 100%. For the compound `CN(c1ccc([N+](=O)[O-])cn1)[C@@H]1CCN(c2ncnc3[nH]ccc23)C1` [Compound 70], the inhibition at 0.3 µM under setting [1] is 50 to 100%. With `CN(C(=O)C1(C#N)CC1)[C@@H]1CCN(c2ncnc3[nH]ccc23)C1` [Compound 6], the inhibition at 0.3 µM under setting [1] lay in the range of 50 to 100%. Same read-out and setting: as for `CN(c1ccc(-c2cccs2)cn1)[C@@H]1CCN(c2ncnc3[nH]ccc23)C1` [Compound 147], the figure is 50 to 100%; as for `CN(c1ccc(C#N)cn1)[C@@H]1CCN(c2ncnc3[nH]ccc23)C1` [Compound 71], 50 to 100%. Still for that read-out and setting: as for `CN(c1ccc(NS(=O)(=O)c2ccc(F)cc2)cn1)[C@@H]1CCN(c2ncnc3[nH]ccc23)C1` [Compound 212], the figure is 50 to 100%; as for `CN(C(=O)Nc1ccc(C#N)c(F)c1)[C@@H]1CCN(c2ncnc3[nH]ccc23)C1` [Compound 31], 50 to 100%. On to `Cc1ccc(NC(=O)c2ccc(N(C)[C@@H]3CCN(c4ncnc5[nH]ccc45)C3)nc2)cc1` [Compound 186], for which the inhibition at 0.3 µM under setting [1] fell in the range of 50 to 100%. The same measure, in the same setting: to `CN(c1ccc(Br)cn1)[C@@H]1CCN(c2ncnc3[nH]ccc23)C1` [Compound 68] belongs 50 to 100%. Same read-out and setting: to `Cc1cc([N+](=O)[O-])cnc1N(C)[C@@H]1CCN(c2ncnc3[nH]ccc23)C1` [Compound 75] belongs 20 to 50%; to `CN(c1ncc(C#N)cc1Cl)[C@@H]1CCN(c2ncnc3[nH]ccc23)C1` [Compound 83], 50 to 100%; to `CN(C(=O)N1CCC[C@@H]1C(N)=O)[C@@H]1CCN(c2ncnc3[nH]ccc23)C1` [Compound 35], 20 to 50%. On the same count and under the same terms, as for `CN(c1cnc(NCC2CC2)cn1)[C@@H]1CCN(c2ncnc3[nH]ccc23)C1` [Compound 138], the figure is 50 to 100%. Turning to `CN(c1ccnc(C#N)c1)[C@@H]1CCN(c2ncnc3[nH]ccc23)C1` [Compound 121], the inhibition at 0.3 µM under setting [1] was 50 to 100%. As for `CN(c1ccc(-c2ccncc2)cn1)[C@@H]1CCN(c2ncnc3[nH]ccc23)C1` [Compound 144], the inhibition at 0.3 µM was in the range of 50 to 100%. For the compound `CN(c1ccc(C(=O)NC2CC2)cn1)[C@@H]1CCN(c2ncnc3[nH]ccc23)C1` [Compound 171, (R)-6-((1-(7H-pyrrolo[2,3-d]pyrimidin-4-yl)pyrrolidin-3-yl)(methyl)amino)-N-cyclopropylnicotinamide], under setting [1], the inhibition at 0.3 µM lay within 50 to 100%.

Regarding `COCCNS(=O)(=O)c1ccc(N(C)[C@@H]2CCN(c3ncnc4[nH]ccc34)C2)nc1` [Compound 237], the inhibition at 0.3 µM under setting [1] lay in the range of 50 to 100%.

For `C=CCN(C1CCCC1)[C@@H]1CCN(c2ncnc3[nH]ccc23)C1` [Compound 40], the inhibition at 0.3 µM under setting [1] was in the range of 50 to 100%.

For `CN(c1ccc(C(=O)NC2c3ccccc3C[C@H]2O)cc1F)[C@@H]1CCN(c2ncnc3[nH]ccc23)C1` (single isomer, unassigned) [Compound 204], the inhibition at 0.3 µM under setting [1] fell in the range of 50 to 100%. As to `CN(c1ccc(F)cn1)[C@@H]1CCN(c2ncnc3[nH]ccc23)C1` [Compound 66], under setting [1], the inhibition at 0.3 µM fell in the range of 20 to 50%.

Regarding `CN(c1ccc(C(=O)NC(CO)c2ccccc2Cl)cc1F)[C@@H]1CCN(c2ncnc3[nH]ccc23)C1` (stereo partly shown) [Compound 207], under setting [1], the inhibition at 0.3 µM was 50 to 100%. Still for that read-out and setting: as for `CN(C(=O)Nc1ccc(C(F)(F)F)cc1)[C@@H]1CCN(c2ncnc3[nH]ccc23)C1` [Compound 30], the figure is 50 to 100%; as for `CN(c1ccc(C#N)nc1)[C@@H]1CCN(c2ncnc3[nH]ccc23)C1` [Compound 76], 20 to 50%; as for `Cc1cc(C#N)cnc1N(C)[C@@H]1CCN(c2ncnc3[nH]ccc23)C1` [Compound 100], 20 to 50%. On the same count and under the same terms, to `CCN(c1ccc(C#N)cc1F)[C@@H]1CCN(c2ncnc3[nH]ccc23)C1` [Compound 133] belongs 50 to 100%; to `CN([C@@H]1CCN(c2ncnc3[nH]ccc23)C1)S(=O)(=O)c1c(F)cccc1F` [Compound 43], 20 to 50%. Same read-out and setting: as for `N#CCN(C1CCC1)[C@@H]1CCN(c2ncnc3[nH]ccc23)C1` [Compound 52], the figure is 50 to 100%. With `CN(c1ccc(NS(=O)(=O)Cc2ccccc2F)cn1)[C@@H]1CCN(c2ncnc3[nH]ccc23)C1` [Compound 219], under setting [1], the inhibition at 0.3 µM was in the range of 50 to 100%. Same read-out and setting: as for `COc1nc(N(C)[C@@H]2CCN(c3ncnc4[nH]ccc34)C2)ccc1C#N` [Compound 42], the figure is 50 to 100%; as for `Cc1cc(N(C)[C@@H]2CCN(c3ncnc4[nH]ccc34)C2)ncc1[N+](=O)[O-]` [Compound 77], 50 to 100%; as for `COC[C@H](NC(=O)c1ccc(N(C)[C@@H]2CCN(c3ncnc4[nH]ccc34)C2)nc1)c1ccccc1` [Compound 209], 50 to 100%. For the compound `CN(C1CCCC1)[C@@H]1CCN(c2ncnc3[nH]ccc23)C1` [Compound 53], under setting [1], the inhibition at 0.3 µM was 50 to 100%. Still for that read-out and setting: as for `CN(C)S(=O)(=O)N(C)[C@@H]1CCN(c2ncnc3[nH]ccc23)C1` [Compound 14], the figure is 50 to 100%; as for `CN(c1ccc(C(N)=O)cn1)[C@@H]1CCN(c2ncnc3[nH]ccc23)C1` [Compound 169, (R)-6-((1-(7H-pyrrolo[2,3-d]pyrimidin-4-yl)pyrrolidin-3-yl)(methyl)amino)nicotinamide], 20 to 50%. Same read-out and setting: to `CCCC(=O)N(C)[C@@H]1CCN(c2ncnc3[nH]ccc23)C1` [Compound 3] belongs 50 to 100%; to `CN(c1ccc(C#N)c(Br)c1)[C@@H]1CCN(c2ncnc3[nH]ccc23)C1` [Compound 114], 50 to 100%. For the compound `CN(c1ccc(S(=O)(=O)NCCO)cn1)[C@@H]1CCN(c2ncnc3[nH]ccc23)C1` [Compound 243], under setting [1], the inhibition at 0.3 µM is 50 to 100%. As to `C[C@@H](NC(=O)c1ccc(N(C)[C@@H]2CCN(c3ncnc4[nH]ccc34)C2)nc1)c1ccccc1` [Compound 195], the inhibition at 0.3 µM under setting [1] is 50 to 100%. In the case of `CCS(=O)(=O)N(C)[C@@H]1CCN(c2ncnc3[nH]ccc23)C1` [Compound 48], the inhibition at 0.3 µM under setting [1] was 50 to 100%.

As for `CN(c1ccc(C(=O)Nc2ccc(F)cc2)cn1)[C@@H]1CCN(c2ncnc3[nH]ccc23)C1` [Compound 191], the inhibition at 0.3 µM under setting [1] was in the range of 50 to 100%.

In the case of `C[C@@H](NS(=O)(=O)c1ccc(N(C)[C@@H]2CCN(c3ncnc4[nH]ccc34)C2)nc1)c1ccc(F)cc1` [Compound 255], under setting [1], the inhibition at 0.3 µM lay within 50 to 100%. The same measure, in the same setting: as for `CN(c1ccc(NS(=O)(=O)Cc2ccc(Cl)cc2)cn1)[C@@H]1CCN(c2ncnc3[nH]ccc23)C1` [Compound 225], the figure is 50 to 100%; as for `CN(c1cnc(C#N)cn1)[C@@H]1CCN(c2ncnc3[nH]ccc23)C1` [Compound 84], 50 to 100%. The same measure, in the same setting: as for `CN(c1ccc(C(=O)N[C@H](CO)c2ccccc2)cn1)[C@@H]1CCN(c2ncnc3[nH]ccc23)C1` [Compound 174], the figure is 50 to 100%.
